Values of other authors, collected in patent US20180128811A1 (JNC Corporation, priority 2012, published 2018).

Conditions: small doses (about less than 250 mg), first-order kinetics; cited from earlier work

**Q.** For CC(=O)Oc1ccccc1C(=O)O [aspirin, acetylsalicylic acid], which Elimination half-life is on record?
**A.** about 4 hours
